Starred links: 1 amine or outer side, 2 acyl side, 3 side chain; linkers in the order of their positions; H or OH if unused. Positions of bridges follow the written chain, without caps; N, C: chain ends. Non-standard residues stand in square brackets, D forms with d. Residues, ends and D or L forms follow the SMILES beside them. *: point of attachment. X1 = CC1(C)C(/C=C/C=C/C=C2\N(CCCS(=O)(=O)O)c3ccc(S(=O)(=O)O)cc3C2(C)CCCCCC(=O)*)=[N+](CCCS(=O)(=O)[O-])c2ccc(S(=O)(=O)O)cc21; Trp(5-F) = N[C@@H](Cc1c[nH]c2ccc(F)cc12)C(=O)O; mXylylene = c1cc(C[*:1])cc(C[*:2])c1; αMeP = C[C@@]1(C(=O)O)CCCN1; Mpa = O=C(O)CCS
Key:
PCSK9 [1] = target: T1, PCSK9 (Homo sapiens, UniProt Q8NBP7); test: PCSK9 Alexa FRET Plus TR-FRET assay (displacement of AlexaFluor647 tagged cyclic peptide Reagent B); format: binding; conditions: for Ki: 0.5 nM biotinylated PCSK9, 960 nM AF cyclic peptide Reagent B, Ki calculated from IC50 and KD of AF peptide
T1 construct: Biotinylated PCSK9 was obtained commercially; purchased
T1 sequence (Q8NBP7 153-692): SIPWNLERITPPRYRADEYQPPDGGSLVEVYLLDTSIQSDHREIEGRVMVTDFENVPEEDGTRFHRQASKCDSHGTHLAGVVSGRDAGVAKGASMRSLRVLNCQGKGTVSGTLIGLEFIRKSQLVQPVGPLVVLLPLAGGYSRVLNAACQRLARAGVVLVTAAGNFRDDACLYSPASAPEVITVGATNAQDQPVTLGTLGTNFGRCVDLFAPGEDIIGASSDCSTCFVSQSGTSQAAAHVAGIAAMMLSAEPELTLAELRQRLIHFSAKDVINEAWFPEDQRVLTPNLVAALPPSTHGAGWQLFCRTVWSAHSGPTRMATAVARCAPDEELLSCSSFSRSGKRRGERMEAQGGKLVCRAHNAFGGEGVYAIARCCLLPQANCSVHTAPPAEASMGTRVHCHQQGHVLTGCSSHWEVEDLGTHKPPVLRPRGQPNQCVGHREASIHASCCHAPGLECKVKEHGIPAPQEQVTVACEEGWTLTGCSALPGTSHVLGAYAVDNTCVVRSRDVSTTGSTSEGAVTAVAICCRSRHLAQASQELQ
Procedure: (§1) The following is a description of the assays used to determine activity of compounds of the invention, and any comparator compounds reported, toward PCSK9 antagonism. Biotinylated PCSK9 was obtained commercially.
A solution containing 1 nM biotinylated PCSK9+2.5 nM Lance Streptavidin Europium (Strep-Eu) is made in 50 mM HEPES pH 7.4, 0.15 M NaCl, 5 mM CaCl2, 0.01% BSA, and 0.01% Surfactant P20. A separate solution containing 1920 nM of the AlexaFluor tagged cyclic peptide is made in the same buffer system. An Echo is used to transfer 0.075 ul of compound plus 0.675 ul of DMSO to each well of an assay plate followed by the addition of 15 ul of PCSK9+Stept-Eu and 15 ul of AF peptide. The final assay volume is 30.750 ul containing 0.5 nM PCSK9, 1.25 nM Strep-Eu, and 960 nM AF cyclic peptide. The reaction is incubated at room temperature for at least two hours prior to fluorescence measurements using an Envision Multilabel Reader. IC50 values are determined by fitting data to a sigmoidal dose-response curve using nonlinear regression. Ki is then calculated from the IC50 and the KD of AF cyclic peptide. Counts (B-counts) of the europium-labeled PCSK9 are followed to observe if compounds are adversely affecting PCSK9. A fall off of the B-counts is likely indicates a false positive of inhibition. Data from this procedure is reported as “P=‘numerical value’ (nanomolar)”
Activity data obtained by one or both of the above-described procedures is reported for selected example compounds of the invention in the following format: Example No.: A (standard TR Fret)=‘numerical value’; P (Alexa Fret plus standard TR Fret)=‘numerical value’/, note that all values reported are nanomolar.

PCSK9 [2] = target: T1, PCSK9; test: PCSK9 Alexa FRET Ultra TR-FRET assay (displacement of AlexaFluor647 tagged cyclic peptide); format: binding; conditions: for Ki: 0.5 nM biotinylated PCSK9, 960 nM AF cyclic peptide, Ki calculated from IC50 and KD of AF peptide
Procedure: as §1
A solution containing 1 nM biotinylated PCSK9+2.5 nM Lance Streptavidin Europium (Strep-Eu) is made in 50 mM HEPES pH 7.4, 0.15 M NaCl, 5 mM CaCl2, 0.01% BSA, and 0.01% Surfactant P20. A separate solution containing 1920 nM of the AlexaFluor tagged cyclic peptide is made in the same buffer system. An Echo is used to transfer 0.015 ul of compound plus 0.735 ul of DMSO to each well of an assay plate followed by the addition of 15 ul of PCSK9+Stept-Eu and 15 ul of AF peptide. The final assay volume is 30.750 ul containing 0.5 nM PCSK9, 1.25 nM Strep-Eu, and 960 nM AF cyclic peptide. The reaction is incubated at room temperature for at least two hours prior to fluorescence measurements using an Envision Multilabel Reader. IC50 values are determined by fitting data to a sigmoidal dose-response curve using nonlinear regression. Ki is then calculated from the IC50 and the KD of AF cyclic peptide. Counts (B-counts) of the europium-labeled PCSK9 are followed to observe if compounds are adversely affecting PCSK9. A fall off of the B-counts is likely indicates a false positive of inhibition. Data from this procedure is reported as “Ki Ultra=‘numerical value’ (data reported is nanomolar)”

Row | SMILES | Ki (PCSK9 [1]; Ki Plus) [pM] | Ki (PCSK9 [2]; Ki Ultra) [pM] | other results
1 | COc1ccc(C[C@@H]2NC(=O)[C@H]([C@@H](C)O)NC(=O)[C@@H]3[C@@H]4CCN3C(=O)[C@@H]3Cc5cn(c6ccc(F)cc56)CCCCN(Cc5ccc(cc5)CCNC(=O)[C@]5(C)CCCN5C2=O)C(=O)CCC(=O)N[C@@H](C)C(=O)N[C@H](CNC(=O)CCC(=O)NC2OC(CO)C(O)C(O)C2O)C(=O)N[C@@H](Cc2cccc(c2)CNC(=O)CO4)C(=O)N3)cc1 (some centres unmarked) [Ex-27] |  |  | Ki (PCSK9 [1]; read-out: Ki Plus): 5.58 pM; Ki (PCSK9 [2]; read-out: Ki Ultra): 3.01 pM
2 | COc1ccc(C[C@@H]2NC(=O)[C@H]([C@@H](C)O)NC(=O)[C@@H]3[C@@H]4CCN3C(=O)[C@@H]3Cc5cn(c6ccc(F)cc56)C/C=C/CN(Cc5ccc(cc5)CCNC(=O)[C@]5(C)CCCN5C2=O)C(=O)CCC(=O)N[C@@H](C)C(=O)N[C@H](CNC(=O)CCOCCOCC[N+](C)(C)C)C(=O)N[C@@H](Cc2cccc(c2)CNC(=O)CO4)C(=O)N3)cc1 [Ex-29] |  |  | Ki (PCSK9 [1]; read-out: Ki Plus): 9.81 pM; Ki (PCSK9 [2]; read-out: Ki Ultra): 6.14 pM
3 | COc1ccc(C[C@@H]2NC(=O)[C@H]([C@@H](C)O)NC(=O)[C@@H]3[C@@H]4CCN3C(=O)[C@@H]3Cc5cn(c6ccccc56)CCCCCCN(Cc5ccc(cc5)CCNC(=O)[C@]5(C)CCCN5C2=O)C(=O)CCC(=O)N[C@@H](C)C(=O)N[C@H](CNC(=O)CCCCC[N+](C)(C)C)C(=O)N[C@@H](Cc2cccc(c2)CNC(=O)CO4)C(=O)N3)cc1 [Ex-35] | 46.5 | 84.3 | 
4 | COc1ccc(C[C@@H]2NC(=O)[C@H](C)NC(=O)[C@@H]3[C@@H]4CCN3C(=O)[C@@H]3Cc5cn(c6ccc(F)cc56)CCCCCCN(Cc5ccc(cc5)CCNC(=O)[C@]5(C)CCCN5C2=O)C(=O)CCC(=O)N[C@@H](C)C(=O)N[C@H](CNC(=O)CCCCC[N+](C)(C)C)C(=O)N[C@@H](Cc2cccc(c2)CNC(=O)CO4)C(=O)N3)cc1 [Ex-36] | 7.62 | 5.07 | 
5 | COc1ccc(C[C@@H]2NC(=O)[C@H]([C@@H](C)O)NC(=O)[C@@H]3[C@@H]4CCN3C(=O)[C@@H]3Cc5cn(c6ccc(F)cc56)CCCCC[C@@H](NC(=O)CCC(=O)N[C@@H](C)C(=O)N[C@H](CNC(=O)CCCCC[N+](C)(C)C)C(=O)N[C@@H](Cc5cccc(c5)CNC(=O)CO4)C(=O)N3)c3ccc(cc3)CCNC(=O)[C@]3(C)CCCN3C2=O)cc1 [Ex-38] | 9.04 | 14.2 | 
6 | COc1ccc(C[C@@H]2NC(=O)[C@H]([C@@H](C)O)NC(=O)[C@@H]3[C@@H]4CCN3C(=O)[C@@H]3Cc5cn(c6ccc(F)cc56)CCCCCOCc5cc(ccc5CNC(=O)CCC(=O)N[C@@H](C)C(=O)N[C@H](CNC(=O)CCCCC[N+](C)(C)C)C(=O)N[C@@H](Cc5cccc(c5)CNC(=O)CO4)C(=O)N3)CCNC(=O)[C@]3(C)CCCN3C2=O)cc1 [Ex-39] | 7.16 | 4.14 | 
7 | COc1ccc(C[C@@H]2NC(=O)[C@H]([C@@H](C)O)NC(=O)[C@@H]3[C@@H]4CCN3C(=O)[C@@H]3Cc5cn(c6ccc(F)cc56)CCCCOc5cc(cc(c5)CNC(=O)CCC(=O)N[C@@H](C)C(=O)N[C@H](CNC(=O)CCCCC[N+](C)(C)C)C(=O)N[C@@H](Cc5cccc(c5)CNC(=O)CO4)C(=O)N3)CCNC(=O)[C@]3(C)CCCN3C2=O)cc1 [Ex-40] | 308 | 860 | 
8 | COc1ccc(C[C@@H]2NC(=O)[C@H]([C@@H](C)O)NC(=O)[C@@H]3[C@@H]4CCN3C(=O)[C@@H]3Cc5cn(c6ccc(F)cc56)CCCCCN(CCOc5ccc(cc5)CCNC(=O)[C@]5(C)CCCN5C2=O)C(=O)CCC(=O)N[C@@H](C)C(=O)N[C@H](CNC(=O)CCCCC[N+](C)(C)C)C(=O)N[C@@H](Cc2cccc(c2)CNC(=O)CO4)C(=O)N3)cc1 [Ex-41] | 6.97 | 6.28 | 
9 | COc1ccc(C[C@@H]2NC(=O)[C@H]([C@@H](C)O)NC(=O)[C@@H]3[C@@H]4CCN3C(=O)[C@@H]3Cc5cn(c6ccc(F)cc56)CCCCCCN(Cc5cccc(c5)CCNC(=O)[C@]5(C)CCCN5C2=O)C(=O)CCC(=O)N[C@@H](C)C(=O)N[C@H](CNC(=O)CCCCC[N+](C)(C)C)C(=O)N[C@@H](Cc2cccc(c2)CNC(=O)CO4)C(=O)N3)cc1 [Ex-44] | 14.5 | 21.9 | 
10 | COc1ccc(C[C@@H]2NC(=O)[C@H]([C@@H](C)O)NC(=O)[C@@H]3[C@@H]4CCN3C(=O)[C@@H]3Cc5cn(c6ccc(F)cc56)C/C=C/CC[C@@H](NC(=O)CCC(=O)N[C@@H](C)C(=O)N[C@H](CNC(=O)CCCCC[N+](C)(C)C)C(=O)N[C@@H](Cc5cccc(c5)CNC(=O)CO4)C(=O)N3)c3ccc(cc3)CCNC(=O)[C@]3(C)CCCN3C2=O)cc1 [Ex-47] | 14.7 | 11.9 | 
11 | COc1ccc(C[C@@H]2NC(=O)[C@H]([C@@H](C)O)NC(=O)[C@@H]3C4CCN3C(=O)[C@@H]3Cc5cn(c6ccc(F)cc56)CCCCC[C@@H](NC(=O)CCC(=O)N[C@@H](C)C(=O)N[C@H](CNC(=O)CCOCCOCC[N+](C)(C)C)C(=O)N[C@@H](Cc5cccc(c5)CNC(=O)CO4)C(=O)N3)c3ccc(cc3)CCNC(=O)[C@]3(C)CCCN3C2=O)cc1 [Ex-48] | 11.7 | 15.4 | 
12 | COc1ccc(C[C@@H]2NC(=O)[C@H]([C@@H](C)O)NC(=O)[C@@H]3[C@@H]4CCN3C(=O)[C@@H]3Cc5cn(c6ccc(F)cc56)CCCCOCc5cc(ccc5CNC(=O)CCC(=O)N[C@@H](C)C(=O)N[C@H](CNC(=O)CCCCC[N+](C)(C)C)C(=O)N[C@@H](Cc5cccc(c5)CNC(=O)CO4)C(=O)N3)CCNC(=O)[C@]3(C)CCCN3C2=O)cc1 [Ex-49] | 7.16 | 4.14 | 
13 | COc1ccc(C[C@@H]2NC(=O)[C@H]([C@@H](C)O)NC(=O)[C@@H]3[C@@H]4CCN3C(=O)[C@@H]3Cc5cn(c6ccc(F)cc56)CCCCCCN(Cc5ccc(cc5)CCNC(=O)[C@]5(C)CCCN5C2=O)C(=O)CCC(=O)N[C@@H](C)C(=O)N[C@H](CNC(=O)CCOCCCCC[N+](C)(C)C)C(=O)N[C@@H](Cc2cccc(c2)CNC(=O)CO4)C(=O)N3)cc1 [Ex-59] | 7.88 | 4.96 | 
14 | COc1ccc(C[C@@H]2NC(=O)[C@H]([C@@H](C)O)NC(=O)[C@@H]3[C@@H]4CCN3C(=O)[C@@H]3Cc5cn(c6ccc(F)cc56)CCCCCCN(Cc5ccc(cc5)CCNC(=O)[C@]5(C)CCCN5C2=O)C(=O)CCC(=O)N[C@@H](C)C(=O)N[C@H](CNC(=O)CNC(=O)CCCCC[N+](C)(C)C)C(=O)N[C@@H](Cc2cccc(c2)CNC(=O)CO4)C(=O)N3)cc1 [Ex-60] | 6.51 | 5.31 | 
15 | COc1ccc(C[C@@H]2NC(=O)[C@H]([C@@H](C)O)NC(=O)[C@@H]3[C@@H]4CCN3C(=O)[C@@H]3Cc5cn(c6ccc(F)cc56)CCCCCCN(Cc5ccc(cc5)CCNC(=O)[C@]5(C)CCCN5C2=O)C(=O)CCC(=O)N[C@@H](C)C(=O)N[C@H](CNC(=O)CCCCCCCC[N+](C)(C)C)C(=O)N[C@@H](Cc2cccc(c2)CNC(=O)CO4)C(=O)N3)cc1 [Ex-61] | 7.47 | 6.54 | 
16 | COc1ccc(C[C@@H]2NC(=O)[C@H](Cc3c[nH]cn3)NC(=O)[C@H](CC(=O)O)NC(=O)[C@H](Cc3c[nH]c4ccc(F)cc34)NC(=O)[C@H](Cc3c[nH]c4ccc(F)cc34)NC(=O)[C@@H](C)NC(=O)[C@H](CCCCNC(=O)CCCCCC3(C)/C(=C/C=C/C=C/C4=[N+](CCCS(=O)(=O)[O-])c5ccc(S(=O)(=O)O)cc5C4(C)C)N(CCCS(=O)(=O)O)c4ccc(S(=O)(=O)O)cc43)NC(=O)CCSCc3cccc(c3)CSC[C@@H](C(N)=O)NC(=O)[C@]3(C)CCCN3C2=O)cc1 (some centres unmarked) [Reagent B, reference compound] ([Mpa]K(X1)[dA][Trp(5-F)][Trp(5-F)]DHY(Me)[αMeP]C-NH2; linker 1-10 via mXylylene) |  |  | Kd (PCSK9 [1]; probe of the Alexa FRET Plus assay): 35000 pM; Kd (PCSK9 [2]; probe of the Alexa FRET Ultra assay): 990 pM
